Laboratory results reported in patent US10993983B2, “Cyclic peptide epitopes and small-molecule mimics for inducing autophagy” (TRUSTEES OF TUFTS COLLEGE, priority 2016, dated 2021).
*1 amine or outer side, *2 acyl side, *3 side chain or, on linkers, in order; H or OH if unused. Where a SMILES comes first, the peptide text is derived from it. Bridges are numbered along the chain shown (N, C = ends). Where no end group is shown, it is not given here. [ ]: non-standard residue; d: D form. The star is where a group is joined. NH(CH2CH2O)2(CH2)6Cl = ClCCCCCCOCCOCCN*; oXylylene = c1ccc(C[*:2])c(C[*:1])c1; Suc = O=C(CCC(=O)[*:2])[*:1]; Carboxymethyl = O=C(O)C*; Pent4ynoyl = C#CCCC(=O)*

Key:
[1] = test system: GFP-LC3 transgenic mice; assay: GFP-LC3 puncta in muscle tissue of GFP-LC3 transgenic mice; type: in vivo; details: for autophagy induction in vivo (GFP-LC3 puncta in muscle), result in words: i.p. injection, muscle tissue after 6 hours, Tat-11mer 15 mg/kg, D-(Tat-11mer) 15 mg/kg, DD5-o 15, 30 mg/kg
Experimental: To show whether Tat-11mer and DD5-o have similar in vivo activity, we tested their ability to induce autophagy in GFP-LC3 transgenic mice^59 as described.^10 Peptides were delivered via intraperitoneal injection, and after 6 hours, muscle tissue was collected. GFP-LC3 puncta were imaged in thin sections and counted by an observer blinded to experimental condition (FIG. 10, a,b).
(§1) HeLa/GFP-LC3 cells generated as previously shown,^10 treated with peptides for 3 hour as described above. […] After 6 h, mice were sacrificed and fixed by perfusion with 4% PFA in PBS. Tissues were fixed in 4% PFA overnight, 15% sucrose for 4 hours, and 30% sucrose overnight before frozen sections were prepared and used for fluorescence microscopy analysis as described.^16 GFP-LC3 puncta were quantified per 2500 μm^2 of tissue. Animal experiments were approved by the UTSW Institutional Animal Care Use Committee and performed in accordance with institutional guidelines.

[2] = test system: HeLa/GFP-LC3 cells; assay: GFP-LC3 puncta assay with and without bafilomycin A1; type: cell-based
Experimental: as §1

[3] = test system: HeLa-htt103Q cells; assay: Htt aggregate assay; type: cell-based
Experimental: Along with proteasomal degradation, autophagy is the major pathway by which aggregated proteins are removed from the cytoplasm.
HeLa-htt103Q cells were cultured as described previously.^60 For the Htt103Q aggregate assay, cells were fixed with 2% PFA in PBS and CFP-positive aggregates […] were counted via fluorescence microscopy by an observer blinded to experimental condition.

[4] = test system: HeLa cells; assay: Autophagy induction judged by p62 and LC3 immunoblots together; type: cell-based; parameters: key to Activity compared to wild-type WT / Activity (μM) 10, single symbol / Activity (μM) 30, single symbol / Activity (μM) 50, single symbol / Activity (μM) 100, single symbol: −: activity not reported; 0: decreased vs. WT; +: similar to WT; ++: modest increase vs. WT; +++: significant increase vs. WT; details: for concentration at which autophagy induction (p62 degradation and LC3 lipidation) was observed: immunoblot, 3 hour treatment; for Activity (μM) 30, single symbol: 30 μM
Summary of the method: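 HeLa cells exposed to peptide (acetyl N-cap, C-terminal amide) for 3 h in acidified OPTI-MEM, then lysed and immunoblotted for p62 and LC3. Activity is the lowest concentration giving both p62 degradation and LC3-I to LC3-II conversion, scored semi-quantitatively.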

[5] = test system: HaLo-GFP-Mito+mCherry-DHFR HeLa cells; assay: Chloroalkane Penetration Assay (CAPA); type: in vitro ADME; details: flow cytometry
Description: FIGS. 19A-19C. Chloroalkane Penetration Assay quantitates relative cytosolic access of exogenously added DD5-o. 19A. Schematic showing the experimental procedure of CAPA, which uses a HaloEnzyme-GFP-expressing HeLa cell line. […] For CAPA, cells are pre-treated with vehicle or peptide, washed, and chased with HTag-TAMRA. Cells treated with cell-penetrant molecules have had their Haloenzyme blocked, thus preventing the HTag-TAMRA from covalently labeling the cells. 19B. Representative images of cells after CAPA, showing Haloenzyme-GFP fluorescence, Halotag-TAMRA fluorescence and the overlay of the two. […] 19C. […]
The Chloroalkane Penetration Assay is described in detail in U.S. Provisional Application No. 62/424,955, filed Nov. […] Following this incubation period, the amount of unreacted Haloenzyme was measured by chasing with a Haloligand-bearing dye (here, Htag-TAMRA). The relative amount of red cellular fluorescence after this chase was then quantified by flow cytometry. […] We evaluated CAPA with HTag-cTMP, a small molecule previously used as a tool for cytosolic protein localization.^71 As quantitated by flow cytometry, we observed inhibition of the HTag-TAMRA signal when cells were pre-incubated with HTag-cTMP, and this inhibition was dose-dependent with respect to amount of the HTag-cTMP used in the pre-incubation step. […]

[6] = test system: p62; assay: p62 degradation assay (p62/actin immunoblot); type: cell-based; parameters: key: −: activity not reported; 0: decreased vs. WT; +: similar to WT; ++: modest increase vs. WT; +++: significant increase vs. WT; details: first symbol; for Activity (μM) 10, p62/actin assay activity: 10 μM
[7] = test system: LC3; assay: LC3 marker assay (LC3-I to LC3-II conversion immunoblot); type: cell-based; parameters: key: −: activity not reported; 0: decreased vs. WT; +: similar to WT; ++: modest increase vs. WT; +++: significant increase vs. WT; details: second symbol; for Activity (μM) 10, LC3 assay activity: 10 μM
[8] = 5 μM, Table 8, control compound T25
[9] = Table 8, *Data taken at 20 instead of 30 μM
[10] = Table 4, control inactive Tat-Beclin mutant
[11] = 30 μM, Table 4, control inactive Tat-Beclin mutant
[12] = 50 μM, Table 4, control inactive Tat-Beclin mutant
[13] = 100 μM, Table 4, control inactive Tat-Beclin mutant

## C#CCCC(=O)N[C@H](C(=O)N[C@@H]1CSCc2ccccc2CSC[C@H](C(=O)N[C@@H](Cc2ccccc2)C(=O)N[C@@H](Cc2cnc[nH]2)C(=O)N[C@H](C(=O)N[C@@H](Cc2c[nH]c3ccccc23)C(=O)N[C@@H](Cc2cnc[nH]2)C(N)=O)[C@@H](C)CC)NC(=O)[C@H](C)NC(=O)[C@H](CC(N)=O)NC1=O)C(C)C [DD5-o, (pa)-VcNAcFHIWH] (Pent4ynoyl-V[dC]NA[dC]FHIWH-NH2; linker 2-5 via oXylylene)
[1]
  autophagy induction in vivo (GFP-LC3 puncta in muscle), result in words: induced autophagy at 15 and 30 mg/kg in a dose-dependent manner
[2]; 3 hours in serum-free media
  concentration at which autophagy was induced (GFP-LC3 puncta): 10 µM
[3]; 20 μM
  percentage of cells with small htt103Q aggregates and number of small aggregates per cell: significant decrease
[4]; HeLa cells
  concentration at which autophagy induction (p62 degradation and LC3 lipidation) was observed: 20 µM
[4]; HeLa cells, p62 and LC3 immunoblots
  autophagy induction, result in words: nearly equal potency

## CC[C@H](C)[C@H](NC(=O)[C@H](Cc1c[nH]cn1)NC(=O)[C@H](Cc1ccccc1)NC(=O)[C@@H](CSCC(=O)O)NC(=O)[C@H](C)NC(=O)[C@H](CC(N)=O)NC(=O)[C@@H](CSCC(=O)O)NC(=O)[C@@H](NC(=O)CCC(=O)NCCOCCOCCCCCCCl)C(C)C)C(=O)N[C@@H](Cc1c[nH]c2ccccc12)C(=O)N[C@@H](Cc1c[nH]cn1)C(N)=O [HTag-DD5-neg, (HTag)-VcNAcFHIWH] ({NH(CH2CH2O)2(CH2)6Cl-Suc}-V[dC](Carboxymethyl)NA[dC](Carboxymethyl)FHIWH-NH2)
[5]
  inhibition of HTag-TAMRA fluorescence (cytosolic access), result in words: little inhibition of HTag-TAMRA fluorescence

## CC[C@H](C)[C@H](NC(=O)[C@H](Cc1c[nH]cn1)NC(=O)[C@H](Cc1ccccc1)NC(=O)[C@H]1CSCc2ccccc2CSC[C@@H](NC(=O)[C@@H](NC(=O)CCC(=O)NCCOCCOCCCCCCCl)C(C)C)C(=O)N[C@@H](CC(N)=O)C(=O)N[C@@H](C)C(=O)N1)C(=O)N[C@@H](Cc1c[nH]c2ccccc12)C(=O)N[C@@H](Cc1c[nH]cn1)C(N)=O [HTag-DD5-o, (HTag)-VcNAcFHIWH] ({NH(CH2CH2O)2(CH2)6Cl-Suc}-V[dC]NA[dC]FHIWH-NH2; linker 2-5 via oXylylene)
[5]
  inhibition of HTag-TAMRA fluorescence (cytosolic access), result in words: dose-dependent suppression of the HTag-TAMRA signal

## (pa)-VcNAcFHIWH (Pent4ynoyl-V[dC]NA[dC]FHIWH; linker 2-5 via ortho‑xylene (inferred); not fully specified (C-terminus); printed as (pa)-VcNAcFHIWH) [LL5-o, ortho-xylene linker; stereoisomer with two L-cysteines, negative control]
[1]
  autophagy induction in vivo (GFP-LC3 puncta in muscle), result in words: no effect
[3]; equimolar concentrations
  clearance of htt103Q aggregates by control peptides: no significant clearance of aggregates

## Tat-11mer: eleven residues derived from Beclin 1, with a Gly-Gly linker and Tat sequence of the N-terminus (SEQ ID NO: 63) (Ac-YGRKKRRQRRRGGVWNATFHIWHD-NH2)
[1]; equimolar doses
  in vivo potency relative to full-length Tat-Beclin 1: 2- to 4 fold
[1]
  autophagy induction in vivo (GFP-LC3 puncta in muscle), result in words: largest increase in autophagosome formation
[2]; activity at 10 μM similar to DD5-o at 40 μM
  fold more potent activation of autophagy (GFP-LC3 puncta): roughly 4 fold
[3]; 10 μM
  percentage of cells with small htt103Q aggregates and number of small aggregates per cell: significant decrease
[4]; HeLa cells
  concentration at which autophagy induction (p62 degradation and LC3 lipidation) was observed: 5 µM

## VFNATFEIWH [Compound T25]
[6]; [8]
  Activity (μM) 5, p62/actin assay activity: ++
[6]; Table 8, control compound T25
  Activity (μM) 10, p62/actin assay activity: ++
[6]; [9]
  Activity (μM) 30, starred cell, p62/actin assay activity: +++/+++*
[4]; Table 7, one symbol only
  Activity (μM) 30, single symbol: +++
[4]; Tat-linked linear peptides, summation of p62 degradation assay and LC3 marker assay
  Activity compared to wild-type WT: ++
[7]; [8]
  Activity (μM) 5, LC3 assay activity: +++
[7]; Table 8, control compound T25
  Activity (μM) 10, LC3 assay activity: +++
[7]; [9]
  Activity (μM) 30, starred cell, LC3 assay activity: +++/+++*

## YGRKKRRQRRR (Human immunodeficiency virus) [Tat, HIV-1 Tat protein transduction domain, reference compound]
[6]; [10]
  Activity (μM) 10, p62/actin assay activity: 0/0
[6]; [11]
  Activity (μM) 30, p62/actin assay activity: 0/0
[6]; [12]
  Activity (μM) 50, p62/actin assay activity: 0
[6]; [13]
  Activity (μM) 100, p62/actin assay activity: 0/0
[4]; 10 μM, Table 4, starred rows (asterisk not explained)
  Activity (μM) 10, single symbol: 0
[4]; Table 4, starred rows (asterisk not explained)
  Activity (μM) 30, single symbol: 0
[4]; 50 μM, Table 4, starred rows (asterisk not explained)
  Activity (μM) 50, single symbol: 0
[4]; 100 μM, Table 4, starred rows (asterisk not explained)
  Activity (μM) 100, single symbol: 0
[7]; [10]
  Activity (μM) 10, LC3 assay activity: 0/0
[7]; [11]
  Activity (μM) 30, LC3 assay activity: 0/0
[7]; [12]
  Activity (μM) 50, LC3 assay activity: +
[7]; [13]
  Activity (μM) 100, LC3 assay activity: 0/0
